The values that follow come from PMC2099433, “The binding site for neohesperidin dihydrochalcone at the human sweet taste receptor” (BMC Structural Biology, 2007).

Residue numbers refer to the chain shown, from its start. Where a SMILES comes first, the peptide text is derived from it.

In assay [1] the target is T1, hTAS1R2 + hTAS1R3 L800F^7.38 (Homo sapiens, UniProt Q7RTX0+Q8TE23, L800F).
T1 construct: expressed in transfected cells; host or cells: HEK293T cells stably expressing G16Gust44
T1 sequence (Q7RTX0 21-852 L800F): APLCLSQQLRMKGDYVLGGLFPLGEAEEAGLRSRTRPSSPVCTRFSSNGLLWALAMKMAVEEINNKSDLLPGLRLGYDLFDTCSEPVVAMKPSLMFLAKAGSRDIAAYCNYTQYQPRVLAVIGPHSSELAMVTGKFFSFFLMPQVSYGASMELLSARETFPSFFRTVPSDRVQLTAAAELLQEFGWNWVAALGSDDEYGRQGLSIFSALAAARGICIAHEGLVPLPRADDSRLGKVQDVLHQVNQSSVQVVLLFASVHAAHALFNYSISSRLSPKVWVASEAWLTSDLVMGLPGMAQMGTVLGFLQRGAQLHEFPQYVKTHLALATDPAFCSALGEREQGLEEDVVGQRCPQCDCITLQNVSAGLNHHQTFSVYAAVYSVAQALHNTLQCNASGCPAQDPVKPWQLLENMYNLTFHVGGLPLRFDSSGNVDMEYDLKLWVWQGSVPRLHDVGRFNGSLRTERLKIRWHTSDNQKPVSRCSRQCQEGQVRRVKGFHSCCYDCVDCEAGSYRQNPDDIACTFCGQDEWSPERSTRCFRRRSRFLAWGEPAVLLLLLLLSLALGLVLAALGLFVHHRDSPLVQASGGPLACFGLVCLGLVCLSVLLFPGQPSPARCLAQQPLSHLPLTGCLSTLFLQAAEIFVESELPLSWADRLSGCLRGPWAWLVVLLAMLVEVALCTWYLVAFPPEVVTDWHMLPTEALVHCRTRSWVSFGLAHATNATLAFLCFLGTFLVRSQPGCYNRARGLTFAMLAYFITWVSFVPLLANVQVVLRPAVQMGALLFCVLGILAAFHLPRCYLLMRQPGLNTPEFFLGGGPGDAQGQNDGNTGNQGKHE
T1 sequence (Q8TE23 20-839): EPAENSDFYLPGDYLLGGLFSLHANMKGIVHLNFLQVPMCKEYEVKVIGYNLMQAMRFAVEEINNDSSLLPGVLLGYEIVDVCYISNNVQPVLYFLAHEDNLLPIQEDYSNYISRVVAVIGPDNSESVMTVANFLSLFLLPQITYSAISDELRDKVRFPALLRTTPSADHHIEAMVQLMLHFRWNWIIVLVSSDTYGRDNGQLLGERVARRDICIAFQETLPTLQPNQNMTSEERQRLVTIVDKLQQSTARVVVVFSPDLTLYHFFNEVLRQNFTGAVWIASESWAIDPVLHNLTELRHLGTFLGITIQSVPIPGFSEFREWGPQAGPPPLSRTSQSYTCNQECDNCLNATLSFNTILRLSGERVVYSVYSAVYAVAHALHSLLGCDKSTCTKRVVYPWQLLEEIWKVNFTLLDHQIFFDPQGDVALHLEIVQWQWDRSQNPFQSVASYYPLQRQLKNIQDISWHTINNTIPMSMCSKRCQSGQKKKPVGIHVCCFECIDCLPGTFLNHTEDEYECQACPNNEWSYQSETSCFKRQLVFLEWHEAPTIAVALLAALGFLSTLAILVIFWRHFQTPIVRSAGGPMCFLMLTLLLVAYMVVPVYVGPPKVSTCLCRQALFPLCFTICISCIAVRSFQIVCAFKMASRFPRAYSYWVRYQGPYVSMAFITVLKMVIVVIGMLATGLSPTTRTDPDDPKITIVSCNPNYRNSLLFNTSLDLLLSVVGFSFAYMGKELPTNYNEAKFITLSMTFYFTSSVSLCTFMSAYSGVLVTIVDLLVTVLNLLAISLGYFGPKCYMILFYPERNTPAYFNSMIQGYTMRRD
Briefly: Calcium response (FLIPR), hTAS1R3 mutant coexpressed with hTAS1R2. In kind it is cell-based. As to conditions: variant L800F^7.38; for Emax: read-out: maximal signal (% of wt). The gist of the method:
(§1)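 HEK293T/G16Gust44, transient transfection of HSV-tagged TAS1R2 + TAS1R3 mutants; Fluo4-AM loading 1 h at 24 h; sweet tastants in C1 solution; FLIPR Ca2+ read; ΔF/F, mock-subtracted; ≥3 independent expts in duplicate.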

Assay [2] addresses T2, hTAS1R2 + hTAS1R3 F624L^2.61 (Homo sapiens, UniProt Q7RTX0+Q8TE23, F624L).
T2 construct: expressed in transfected cells; host or cells: HEK293T cells stably expressing G16Gust44
T2 sequence (Q8TE23 20-839): T1 sequence (Q8TE23 20-839)
T2 sequence (Q7RTX0 21-852 F624L): T1 sequence (Q7RTX0 21-852 L800F) with F604L, F780L
The assay is described as above. The settings on record: variant F624L^2.61; for EC50: (>) EC50 not calculable because saturation is not reached; for Emax: read-out: maximal signal (% of wt). In kind it is cell-based. The gist of the method:
as §1

Take `COc1ccc(CCC(=O)c2c(O)cc(O[C@@H]3O[C@H](CO)[C@@H](O)[C@H](O)[C@H]3O[C@@H]3O[C@@H](C)[C@H](O)[C@@H](O)[C@H]3O)cc2O)cc1O` [NHDC, neohesperidin dihydrochalcone]: in assay [1], the EC50 was determined as 0.2 ± 0.1 mM and the Emax amounted to 91 ± 70%. In addition, in assay [2], the concentration for a half-maximal effect (EC50) is over 1 mM and the Emax stood at 35 ± 70%.

Regarding `COC(=O)[C@H](Cc1ccccc1)NC(=O)[C@@H](N)CC(=O)O` [aspartame] (HELM PEPTIDE1{D.F.[CO[*:1]]}$$$$V2.0), in assay [1], the EC50 came out at 1.2 ± 0.3 mM and the Emax worked out at 90 ± 1%. Moreover, in assay [2], the EC50 is 1.4 ± 0.2 mM and the Emax is 21 ± 4%.
